Source: PubChem BioAssay AID248 (DTP/NCI, 2004)
“And” between values parts separate entries of the source, which are not always exact repeats. Equal entries are not always repeated. Inconclusive results and toxic doses are left out. Rule as the data show it: active = T/C of 150% or more; inactive = T/C below 125%.

System: L1210 leukemia ip in BDF1 mice, survival T/C
Test: NCI In Vivo Anticancer Drug Screen. Data for tumor model L1210 Leukemia (intraperitoneal) in B6D2F1 (BDF1) mice
Conditions: endpoint: mean survival time, higher = longer survival
Procedure, shortened: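 Tumor was transplanted into mice, which were then dosed with test compound or vehicle alone. Survival was recorded for each group, and the treated figure was expressed relative to the control figure.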

[1] = dose: 100.0 mg/kg/injection, schedule: Q01DX001 (ip), vehicle: saline
[2] = dose: 200.0 mg/kg/injection, schedule: Q01DX001 (ip), vehicle: saline
[3] = dose: 100.0 mg/kg/injection, schedule: Q04DX003 (ip), vehicle: saline
[4] = dose: 200.0 mg/kg/injection, schedule: Q04DX003 (ip), vehicle: saline
[5] = dose: 400.0 mg/kg/injection, schedule: Q04DX003 (ip), vehicle: saline
[6] = dose: 75.0 mg/kg/injection, schedule: Q01DX001 (ip), vehicle: other
[7] = dose: 100.0 mg/kg/injection, schedule: Q04DX002 (ip), vehicle: Klucel (hydroxypropylcellulose) (HPC)
[8] = dose: 200.0 mg/kg/injection, schedule: Q04DX002 (ip), vehicle: Klucel (hydroxypropylcellulose) (HPC)
[9] = dose: 100.0 mg/kg/injection, schedule: Q04DX003 (ip), vehicle: saline with Tween-80
[10] = dose: 200.0 mg/kg/injection, schedule: Q04DX003 (ip), vehicle: saline with Tween-80
[11] = dose: 400.0 mg/kg/injection, schedule: Q04DX003 (ip), vehicle: saline with Tween-80
[12] = dose: 100.0 mg/kg/injection, schedule: Q01DX001 (ip), vehicle: saline with Tween-80
[13] = dose: 200.0 mg/kg/injection, schedule: Q01DX001 (ip), vehicle: saline with Tween-80
[14] = dose: 400.0 mg/kg/injection, schedule: Q01DX001 (ip), vehicle: saline with Tween-80
[15] = dose: 50.0 mg/kg/injection, schedule: Q01DX009 (ip), vehicle: saline with Tween-80
[16] = dose: 100.0 mg/kg/injection, schedule: Q01DX009 (ip), vehicle: saline with Tween-80
[17] = dose: 100.0 mg/kg/injection, schedule: Q01DX009 (ip), vehicle: Klucel (hydroxypropylcellulose) (HPC)
[18] = dose: 100.0 mg/kg/injection, schedule: Q04DX003 (ip), vehicle: Klucel (hydroxypropylcellulose) (HPC)
[19] = dose: 200.0 mg/kg/injection, schedule: Q01DX009 (ip), vehicle: Klucel (hydroxypropylcellulose) (HPC)
[20] = dose: 200.0 mg/kg/injection, schedule: Q04DX003 (ip), vehicle: Klucel (hydroxypropylcellulose) (HPC)
[21] = dose: 400.0 mg/kg/injection, schedule: Q04DX003 (ip), vehicle: Klucel (hydroxypropylcellulose) (HPC)
[22] = dose: 400.0 mg/kg/injection, schedule: Q01DX001 (ip), vehicle: saline
[23] = dose: 400.0 mg/kg/injection, schedule: Q04DX002 (ip), vehicle: Klucel (hydroxypropylcellulose) (HPC)

Measured: T/C

O=C(c1ccc([N+](=O)[O-])cc1)N1C2CCCCCCC21 (stereo not drawn)
inactive: dose: 50.0 mg/kg/injection, schedule: Q01DX009 (ip), vehicle: saline 121 % of control | [1] 94 % of control | dose: 100.0 mg/kg/injection, schedule: Q01DX009 (ip), vehicle: saline 113 % of control | [2] 89 % of control | dose: 200.0 mg/kg/injection, schedule: Q01DX009 (ip), vehicle: saline 110 % of control

CC(=N)N
inactive: [3] 114 % of control | [4] 90 % of control | [5] 111 % of control

CN(C)CC(=O)NCCCCCCCCCCNC(=O)CN(C)C
inactive: dose: 10.0 mg/kg/injection, schedule: Q01DX Z (ip), vehicle: saline 88 % of control | dose: 30.0 mg/kg/injection, schedule: Q01DX Z (ip), vehicle: saline 96 % of control | dose: 100.0 mg/kg/injection, schedule: Q01DX Z (ip), vehicle: saline 97 % of control | dose: 300.0 mg/kg/injection, schedule: Q01DX Z (ip), vehicle: saline 102 % of control

O=[N+]([O-])c1ccccn1
inactive: dose: 6.25 mg/kg/injection, schedule: Q01DX009 (ip), vehicle: saline 102 % of control | dose: 6.25 mg/kg/injection, schedule: Q04DX003 (ip), vehicle: saline 95 % of control | dose: 12.5 mg/kg/injection, schedule: Q01DX009 (ip), vehicle: saline 102 % of control | dose: 12.5 mg/kg/injection, schedule: Q04DX003 (ip), vehicle: saline 98 % of control | dose: 25.0 mg/kg/injection, schedule: Q04DX003 (ip), vehicle: saline 93 % of control | [6] 98 % of control

CCN(CC)Cc1ccccc1COC(=O)c1cccc(Br)c1
inactive: dose: 50.0 mg/kg/injection, schedule: Q04DX002 (ip), vehicle: Klucel (hydroxypropylcellulose) (HPC) 111 % of control | [7] 118 % of control | [8] 103 % of control

Oc1ccc(Cl)cc1/C=N/Nc1nnc(N/N=C/c2cc(Cl)ccc2O)c2ccccc12
inactive: dose: 50.0 mg/kg/injection, schedule: Q01DX001 (ip), vehicle: carboxymethylcellulose (CMC) 90 % of control | dose: 100.0 mg/kg/injection, schedule: Q01DX001 (ip), vehicle: carboxymethylcellulose (CMC) 93 % of control | dose: 200.0 mg/kg/injection, schedule: Q01DX001 (ip), vehicle: carboxymethylcellulose (CMC) 95 % of control | dose: 400.0 mg/kg/injection, schedule: Q01DX001 (ip), vehicle: carboxymethylcellulose (CMC) 95 % of control

OCCN1C(c2ccccc2)C1c1ccccc1 (stereo not drawn)
inactive: [9] 102 % of control | [10] 93 % of control | [11] 97 % of control

ON=C1C2CC3CC(C2)CC1C3
inactive: [6] 96 % of control | dose: 150.0 mg/kg/injection, schedule: Q01DX001 (ip), vehicle: other 94 % of control | dose: 300.0 mg/kg/injection, schedule: Q01DX001 (ip), vehicle: other 93 % of control

CCc1c(N)nc(N)nc1Nc1ccc(Cl)c(Cl)c1
inactive: dose: 100.0 mg/kg/injection, schedule: Q01DX Z (ip), vehicle: methylcellulose (MC) 96 % of control

CC(=O)N(c1ccc(NC(=O)c2ccc(N3C(=O)c4ccccc4C3=O)cc2[N+](=O)[O-])cc1)c1cc[n+](C)cc1
inactive: [12] 93 % of control and 90 % of control | dose: 100.0 mg/kg/injection, schedule: Q04DX002 (ip), vehicle: saline with Tween-80 101 % of control and 115 % of control | [13] 93 % of control and 108 % of control | dose: 200.0 mg/kg/injection, schedule: Q04DX002 (ip), vehicle: saline with Tween-80 101 % of control and 113 % of control | [14] 107 % of control and 90 % of control | dose: 400.0 mg/kg/injection, schedule: Q04DX002 (ip), vehicle: saline with Tween-80 96 % of control and 105 % of control

CC(C)(C)NC1=NCCO1
inactive: dose: 25.0 mg/kg/injection, schedule: Q01DX009 (ip), vehicle: saline with Tween-80 100 % of control | [15] 102 % of control | [16] 96 % of control | [9] 100 % of control

COC(=O)C1C=Cc2ccccc21 (stereo not drawn)
inactive: [9] 104 % of control | [10] 93 % of control | [11] 102 % of control

O=c1cc(CN(CCO)CCO)[nH]c(=O)[nH]1
inactive: [3] 93 % of control | [4] 95 % of control | [5] 93 % of control

C[n+]1c(-c2cc(Cl)cc(Cl)c2)c2cc([N+](=O)[O-])ccc2c2ccccc21
inactive: dose: 50.0 mg/kg/injection, schedule: Q01DX009 (ip), vehicle: water 109 % of control | dose: 100.0 mg/kg/injection, schedule: Q01DX009 (ip), vehicle: water 96 % of control | dose: 100.0 mg/kg/injection, schedule: Q04DX003 (ip), vehicle: water 92 % of control | dose: 200.0 mg/kg/injection, schedule: Q01DX009 (ip), vehicle: water 98 % of control | dose: 200.0 mg/kg/injection, schedule: Q04DX003 (ip), vehicle: water 96 % of control | dose: 400.0 mg/kg/injection, schedule: Q04DX003 (ip), vehicle: water 93 % of control

CSc1nc2nc[nH]c(=O)c2cc1C#N
inactive: dose: 100.0 mg/kg/injection, schedule: Q01DX001 (ip), vehicle: Klucel (hydroxypropylcellulose) (HPC) 91 % of control | dose: 200.0 mg/kg/injection, schedule: Q01DX001 (ip), vehicle: Klucel (hydroxypropylcellulose) (HPC) 96 % of control | dose: 400.0 mg/kg/injection, schedule: Q01DX001 (ip), vehicle: Klucel (hydroxypropylcellulose) (HPC) 106 % of control

CCC/C=C/C(C)C
inactive: [17] 105 % of control | [18] 93 % of control | [19] 92 % of control | [20] 97 % of control | dose: 400.0 mg/kg/injection, schedule: Q01DX009 (ip), vehicle: Klucel (hydroxypropylcellulose) (HPC) 95 % of control | [21] 101 % of control

CCOC(=O)CSC1=NCCN1
inactive: [1] 105 % of control | [2] 113 % of control | [22] 105 % of control

Cc1cc(C)c(B2OB(c3c(C)cc(C)cc3C)O2)c(C)c1
inactive: [17] 95 % of control | [18] 96 % of control | [19] 97 % of control | [20] 103 % of control | [21] 91 % of control

CCCCCC(C)NC(=O)NCCCl (stereo not drawn)
inactive: [7] 89 % of control | [8] 92 % of control | [23] 87 % of control

CCC[n+]1c(C)oc2ccc(-c3ccccc3)cc21
inactive: [15] 97 % of control | [12] 94 % of control | [16] 101 % of control | [13] 99 % of control | [14] 90 % of control

CC(C)(C(N)=O)c1ccccc1
inactive: dose: 50.0 mg/kg/injection, schedule: Q01DX001 (ip), vehicle: saline 106 % of control | [1] 103 % of control | [2] 103 % of control | [22] 100 % of control

C=C(C)COC(=O)Nc1cccc(O)c1
inactive: dose: 100.0 mg/kg/injection, schedule: Q01DX001 (ip), vehicle: saline + alcohol 96 % of control | dose: 200.0 mg/kg/injection, schedule: Q01DX001 (ip), vehicle: saline + alcohol 96 % of control

O=C(O)c1cccc(-c2ccccc2)c1
inactive: dose: 25.0 mg/kg/injection, schedule: Q04DX003 (ip), vehicle: saline with Tween-80 94 % of control | dose: 50.0 mg/kg/injection, schedule: Q04DX003 (ip), vehicle: saline with Tween-80 93 % of control | [9] 104 % of control | [3] 101 % of control | [10] 94 % of control and 100 % of control | [4] 106 % of control | [5] 108 % of control

O=c1oc2ccccc2cc1-c1ccc([N+](=O)[O-])cc1
inactive: [7] 100 % of control | [8] 89 % of control | [23] 89 % of control

O=C(NCC1=NCCN1)c1ccccc1
inactive: dose: 100.0 mg/kg/injection, schedule: Q04DX002 (ip), vehicle: saline 96 % of control | dose: 200.0 mg/kg/injection, schedule: Q04DX002 (ip), vehicle: saline 89 % of control | dose: 400.0 mg/kg/injection, schedule: Q04DX002 (ip), vehicle: saline 96 % of control
